This test concerns CT26 colon tumor. Description: Anti-cancer activity in CT26 tumor-bearing BALB/c mice. The test is classed as in vivo, mouse. Conditions: anti-PD-1 10 mg/kg, chidamide 50 mg/kg, metformin 100 mg/kg.

Protocol: Animal research was approved and overseen by The Taipei Medical University Institutional Animal Care and Use Committee (TMU IACUC). Six- to eight-wk-old male BALB/C mice (BioLASCO Taiwan) were used for all animal experiments. JC (1×10^7), or CT26 (5×10^6˜1×10^7) cancer cells were inoculated by s.c. into the right flank of each mouse. Tumors were allowed to grow for 11 d (tumor size about 200-300 mm^3) before randomization and treatment. CT26-bearing and JC-bearing mice were given 10 or 2.5 mg/kg of anti-IgG, anti-PD-1 and/or anti-PD-L1 and anti-CTLA-4 (2.5 mg/kg) antibodies i.p. on days 11, 14, 17, 20, 23, and 26 post-tumor implantation, and all antibodies were diluted to appropriate concentrations in 100 μL of sterile PBS (pH 7.4) (Invitrogen Life Technologies). Celecoxib, chidamide, metformin, mocetinostat, entinostat, aspirin, and ibuprofen treatments were administrated orally on day 11 post-tumor implantation. Daily treatment with celecoxib (12.5, 25.0, and 50 mg/kg) or metformin (100 or 200 mg/kg) was performed from days 11 to 26. Chidamide was administered to treat tumor bearing mice at doses of 6.25, 12.5, 25, and 50 mg/kg or as a single dose. Chidamide was orally administered daily from days 11 to 26. Entinostat was orally administered at a dose of 20 mg/kg every two days from days 11 to 25. Mocetinostat was orally administered at a dose of 30 mg/kg daily treatment from days 11 to 26. Aspirin and ibuprofen was orally administered at a dose of 50 mg/kg daily treatment from days 11 to 26. The anti-cancer activity was measured from the start of the treatment of tumor growth until the tumor volume reached 3,000 mm^3. Tumor volume was calculated as length×width^2×0.5.
To understand the anti-cancer activity of anti-PD-1 antibody on the CT-26 colon cancer cell -bearing BALB/c mice, the anti-PD-1 antibody was administered into CT26-bearing mice at 10 mg/kg of anti-PD-1 and/or anti-IgG antibodies i.p. on days 11, 14, 17, 20, 23, and 26 of post tumor implantation. […] The response rate was evaluated by several assays.

Consider `CN(C)C(=N)N=C(N)N` [metformin], for which, for the setting “FIG. 2A/2B”, the “tumor growth inhibition / anti-cancer activity” value is on record as “markedly inhibited”. For the setting “FIG. 2B, entinostat 20 mg/kg”, the “mice with PD” value was “five” and the “mice with SD” value is “one”.

The values are drawn from patent US11840570B2, “Pharmaceutical combination and method for regulation of tumor microenvironment and immunotherapy” (Great Novel Therapeutics Biotech & Medicals Corporation, priority 2018, dated 2023).
